Laboratory results: patent US11571407B2, “Bicalutamide analogs or (S)-bicalutamide as exocytosis activating compounds for use in the treatment of a lysosomal storage disorder or glycogenosis” (BCN PEPTIDES, S.A., priority 2013, dated 2023)
Marks after values point to notes of the source that are not given here.

Experiments:
[1] = test system: fibroblasts from patients affected by different lysosomal storage diseases; test: Determination of lysosomal exocytosis (β-hexosaminidase activity in the culture medium); format: cell-based, human; settings: vs untreated
Protocol: (§1) Fibroblasts from thirteen patients affected by seven different lysosomal storage diseases (Fabry, Gaucher, Hurler, Niemann-Pick type A/B, Sanfilippo A, Sanfilippo B and Tay-Sachs) were cultured in DMEM (Dulbecco's modified Eagles medium) with 10% fetal bovine serum and in the presence of antibiotics (penicillin and streptomycin), at 37° C. with 5% CO2. All reagents were purchased from PAA Laboratories (Velizy-Villacoublay, France). The fibroblasts of the patients were selected on the basis of availability of fibroblasts and measurable residual activity. The use of human samples was approved by the Ethical Committee of Hospital Clinic, Barcelona
Fibroblasts cultured for 72 h in 24 well-plates in the presence or absence of bicalutamide, (S)-bicalutamide, (S)-bicalutamide analogs or (R)-bicalutamide at different concentrations in triplicate (10 nmol/L, 100 nmol/L, 1 μmol/L, 10 μmol/L, 50 μmol/L and 100 μmol/L), were rinsed with physiological saline. The cells were lysed by using 3 freeze-thaw cycles. Then protein concentration was determined by using the Lowry method. Protein lysates (10 μg) were seeded in 96-well plates and the enzymatic activity of the enzyme involved in each disease was determined in triplicate by means of fluorimetric artificial substrates: 4-methylumbelliferyl-α-N-sulphoglucosaminide for Sanfilippo A, 4-methylumbelliferyl-2-acetamido-2 deoxy-α-D-glucopyranoside for Sanfilippo B, 4-methylumbelliferyl-α-L-iduronide for Hurler, 4-methylumbelliferyl-N-acetyl-β-D-glucosaminide for Tay-sachs, 4-methylumbelliferyl-β-D-glucopyranoside for Gaucher, 4-methylumbelliferyl-α-Galactopiranosid for Fabry disease, and 6-hexadecanoylamino-4-methylumbelliferyl-P-colline for Niemann-Pick type AB. The activity of the enzyme β-hexosaminidase was assayed by using 4-methylumbelliferyl-2 acetamido-2 deoxy-β-D-glucopyranoside as artificial substrate [Annunziata et al., Study of influence of sex and age on human serum lysosomal enzymes by using 4-methylumbelliferyl substrates. Clin. Chim. Acta.
Lysosomal exocytosis was monitorized by measuring the enzymatic activity of the lysosomal enzyme β-hexosaminidase in the culture medium [Xu M, et al, δ-Tocopherol reduces lipid accumulation in Niemann-Pick type C1 and Wolman cholesterol storage disorders. […] The fibroblasts were previously treated with different concentrations of bicalutamide, (S)-bicalutamide or (R)-bicalutamide (10 nmol/L, 100 nmol/L, 1 μmol/L, 10 μmol/L, 50 μmol/L and 100 μmol/L) in triplicate in 24-well plates. At 0, 24, 48 and 72 hours, 30 μL of culture medium was aliquoted for the subsequent β-hexosaminidase activity assay.
Fibroblasts from two patients affected by Sanfilippo B and Hurler diseases were treated with different concentrations of bicalutamide (racemic mixture at increasing concentrations of 0.01, 0.1, 1, 10 and 100 μM). And the increase in lysosomal exocytosis was determined by analyzing the enzymatic activity of the lysosomal enzyme β-hexosaminidase in the culture medium.
Fibroblasts from thirteen patients affected by different lysosomal storage diseases (four Sanfilippo B disease patients with different genotypes, three Sanfilippo A disease patients with different genotypes, two Tay-Sachs disease patients with the same genotype, one Gaucher disease patient, one Niemann-pick type A/B disease patient, one Hurler disease patient, and one Fabry disease patient) were independently treated with different concentrations of (R)- and (S)-bicalutamide (50 and 100 μM) for 72 hours.

[2] = test system: fibroblasts from patients affected by different lysosomal storage diseases; test: Determination of glycosaminoglycans (GAGs), 1,9-dimethylmethylene blue (DMB) assay; format: cell-based, human; settings: vs untreated
Protocol: as §1
Glycobiology. […] The fibroblasts were cultured in triplicate in 6-well plates and they were harvested 72 hours after treatment. DMB absorbance was measured in duplicate at 656 nm with a microplate reader (POLARstar Omega, BMG LABTECH, Offenburg, Germany).
Fibroblasts from three patients affected by Sanfilippo B disease and one patient affected by Hurler disease were treated with increasing concentrations of bicalutamide (racemic mixture at increasing concentrations of 0.01, 0.1, 1, 10 and 100 μM). Glycosaminoglycans (GAGs) levels were quantified with the 1,9-dimethylmethylene blue (DMB) assay.
Fibroblasts from seven patients affected by different diseases derived from lysosomal storage (three Sanfilippo B disease patients with different genotypes, one Sanfilippo A disease patient, one Tay-Sachs disease patient, one Niemann-Pick type A/B disease patient and one Hurler disease patient) were independently treated with different concentrations of (R)- and (S)-bicalutamide (50 and 100 μM).

For `CC(O)(CS(=O)(=O)c1ccc(F)cc1)C(=O)Nc1ccc(C#N)c(C(F)(F)F)c1` (racemic) [Racemic Bicalutamide], which “Increase in lysosomal Exocytosis (%)” value ([1]; Table 1 patient 1, Sanfilippo B fibroblasts, 10 nM) is on record?
The value was 31* %.

What about the “Increase in lysosomal Exocytosis (%)” value ([1]; Table 1 patient 1, Sanfilippo B fibroblasts, 100 nM) of the same compound?
Its value is 23* %.

And the “Increase in lysosomal Exocytosis (%)” value ([1]; Table 1 patient 1, Sanfilippo B fibroblasts, 1 μM)?
Its value is 49%.

And the “Increase in lysosomal Exocytosis (%)” value ([1]; Table 1 patient 1, Sanfilippo B fibroblasts, 10 μM)?
Its value is 45%.

What about the “Increase in lysosomal Exocytosis (%)” value ([1]; Table 1 patient 1, Sanfilippo B fibroblasts, 100 μM) of the same compound?
Its value is 100* %.

And the “Increase in lysosomal Exocytosis (%)” value ([1]; Table 1 patient 2, Hurler fibroblasts, 10 nM)?
The value was 14%.

And the “Increase in lysosomal Exocytosis (%)” value ([1]; Table 1 patient 2, Hurler fibroblasts, 100 nM)?
Its value is 13%.

What about the “Increase in lysosomal Exocytosis (%)” value ([1]; Table 1 patient 2, Hurler fibroblasts, 1 μM) of the same compound?
Its value is 9%.

What about the “Increase in lysosomal Exocytosis (%)” value ([1]; Table 1 patient 2, Hurler fibroblasts, 10 μM) of the same compound?
The value was 3%.

What about the “Increase in lysosomal Exocytosis (%)” value ([1]; Table 1 patient 2, Hurler fibroblasts, 100 μM) of the same compound?
Its value is 8%.

What about the “Increase in lysosomal Exocytosis (%)” value ([1]; Table 1 patient 3, Control fibroblasts, 10 nM) of the same compound?
Its value is 0%.

And the “Increase in lysosomal Exocytosis (%)” value ([1]; Table 1 patient 3, Control fibroblasts, 100 nM)?
The value was 27%.

What about the “Increase in lysosomal Exocytosis (%)” value ([1]; Table 1 patient 3, Control fibroblasts, 1 μM) of the same compound?
The value was 13%.

And the “Increase in lysosomal Exocytosis (%)” value ([1]; Table 1 patient 3, Control fibroblasts, 10 μM)?
Its value is 12* %.

And the “Increase in lysosomal Exocytosis (%)” value ([1]; Table 1 patient 3, Control fibroblasts, 100 μM)?
The value was 13* %.

What about the “Decrease of GAGs (%)” value ([2]; Table 2 patient 1, Sanfilippo B fibroblasts, 10 nM) of the same compound?
Its value is 17%.

And the “Decrease of GAGs (%)” value ([2]; Table 2 patient 1, Sanfilippo B fibroblasts, 100 nM)?
The value was 25%.

What about the “Decrease of GAGs (%)” value ([2]; Table 2 patient 1, Sanfilippo B fibroblasts, 1 μM) of the same compound?
The value was 17%.

And the “Decrease of GAGs (%)” value ([2]; Table 2 patient 1, Sanfilippo B fibroblasts, 10 μM)?
The value was 22* %.

What about the “Decrease of GAGs (%)” value ([2]; Table 2 patient 1, Sanfilippo B fibroblasts, 100 μM) of the same compound?
The value was 54* %.

And the “Decrease of GAGs (%)” value ([2]; Table 2 patient 2, Sanfilippo B fibroblasts, 10 nM)?
Its value is 0%.

And the “Decrease of GAGs (%)” value ([2]; Table 2 patient 2, Sanfilippo B fibroblasts, 100 nM)?
Its value is 16%.

What about the “Decrease of GAGs (%)” value ([2]; Table 2 patient 2, Sanfilippo B fibroblasts, 1 μM) of the same compound?
Its value is 0%.

And the “Decrease of GAGs (%)” value ([2]; Table 2 patient 2, Sanfilippo B fibroblasts, 10 μM)?
The value was 0%.

And the “Decrease of GAGs (%)” value ([2]; Table 2 patient 2, Sanfilippo B fibroblasts, 100 μM)?
The value was 20%.

And the “Decrease of GAGs (%)” value ([2]; Table 2 patient 3, Sanfilippo B fibroblasts, 10 nM)?
Its value is 53%.

What about the “Decrease of GAGs (%)” value ([2]; Table 2 patient 3, Sanfilippo B fibroblasts, 100 nM) of the same compound?
The value was 13%.

What about the “Decrease of GAGs (%)” value ([2]; Table 2 patient 3, Sanfilippo B fibroblasts, 1 μM) of the same compound?
The value was 33%.

What about the “Decrease of GAGs (%)” value ([2]; Table 2 patient 3, Sanfilippo B fibroblasts, 10 μM) of the same compound?
Its value is 33%.

And the “Decrease of GAGs (%)” value ([2]; Table 2 patient 3, Sanfilippo B fibroblasts, 100 μM)?
Its value is 0%.

And the “Decrease of GAGs (%)” value ([2]; Table 2 patient 4, Hurler fibroblasts, 10 nM)?
The value was 0%.

And the “Decrease of GAGs (%)” value ([2]; Table 2 patient 4, Hurler fibroblasts, 100 nM)?
The value was 0%.

And the “Decrease of GAGs (%)” value ([2]; Table 2 patient 4, Hurler fibroblasts, 1 μM)?
Its value is 0%.

What about the “Decrease of GAGs (%)” value ([2]; Table 2 patient 4, Hurler fibroblasts, 10 μM) of the same compound?
Its value is 0%.

What about the “Decrease of GAGs (%)” value ([2]; Table 2 patient 4, Hurler fibroblasts, 100 μM) of the same compound?
Its value is 0%.

And the “Decrease of GAGs (%)” value ([2]; Table 2 patient 5, Control fibroblasts, 10 nM)?
The value was 0%.

What about the “Decrease of GAGs (%)” value ([2]; Table 2 patient 5, Control fibroblasts, 100 nM) of the same compound?
The value was 0%.

And the “Decrease of GAGs (%)” value ([2]; Table 2 patient 5, Control fibroblasts, 1 μM)?
The value was 0%.

And the “Decrease of GAGs (%)” value ([2]; Table 2 patient 5, Control fibroblasts, 10 μM)?
Its value is 0%.

What about the “Decrease of GAGs (%)” value ([2]; Table 2 patient 5, Control fibroblasts, 100 μM) of the same compound?
The value was 0%.
